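How tested: cells in 96-well plates exposed to compound for 48 hours at five concentrations. At the TGI there is no net growth.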
Legend:
Assay in all cases: growth of human tumour cells (NCI), 48 h
T-47D breast = test system: T-47D breast
KM12 colon = test system: KM12 colon
TK-10 renal = test system: TK-10 renal
RXF 393 renal = test system: RXF 393 renal
NCI/ADR-RES ovarian = test system: NCI/ADR-RES ovarian
MALME-3M melanoma = test system: MALME-3M melanoma
HCC-2998 colon = test system: HCC-2998 colon
OVCAR-3 ovarian = test system: OVCAR-3 ovarian
DU-145 prostate = test system: DU-145 prostate
HL-60(TB) leukemia = test system: HL-60(TB) leukemia

| SMILES | TGI (T-47D breast) | TGI (KM12 colon) | TGI (TK-10 renal) | TGI (RXF 393 renal) | TGI (NCI/ADR-RES ovarian) | TGI (MALME-3M melanoma) | TGI (HCC-2998 colon) | TGI (OVCAR-3 ovarian) | TGI (DU-145 prostate) | TGI (HL-60(TB) leukemia) |
| --- | --- | --- | --- | --- | --- | --- | --- | --- | --- | --- |
| CC(C)C(C/C=C1/CC(CO)(COC(=O)c2ccccc2)OC1=O)C(C)C (configuration not stated) | 31.2 µM | 31.7 µM | 32.3 µM | 31.2 µM | 38.8 µM | 25.1 µM | 40.8 µM | 32.2 µM |  |  |
| CCOC(=O)/C=C/[C@H](O)[C@@H](O)/C=C/C(=O)OCC | > 100 µM | 47.6 µM | > 100 µM | 79.4 µM | > 100 µM | 46.8 µM | > 100 µM | 64.7 µM | > 100 µM |  |
| COc1cc(S(=O)(=O)Nc2ccc(-c3csc(N4C(=O)C(Cl)C4c4ccccc4)n3)cc2)ccc1Cl (configuration not stated) | 77.1 µM | > 100 µM | > 100 µM | 23.1 µM | > 100 µM | 49 µM |  | > 100 µM | 38.7 µM | > 100 µM |
| O=C(O)CNn1c(SCC(=O)O)nnc(/C=C/c2c(O)ccc3ccccc23)c1=O | > 100 µM | > 100 µM |  |  | 67.9 µM | > 100 µM | > 100 µM | > 100 µM | > 100 µM | 25.9 µM |
| Cc1c(N/C=C(\C#N)C(=O)c2ccc(Cl)cc2)c(=O)n(-c2ccccc2)n1C |  | > 100 µM | > 100 µM | > 100 µM | > 100 µM | > 100 µM | > 100 µM | > 100 µM | > 100 µM | > 100 µM |
| COC(=O)C1=CN(C2CCCCC2)C2(c3ccccc3)c3ccccc3C(=O)OC(=O)C12 (configuration not stated) |  | > 100 µM | > 100 µM | 97.2 µM | > 100 µM | > 100 µM | > 100 µM | > 100 µM | > 100 µM | > 100 µM |
| CC(C)(C)OC(=O)c1ccc(NCC2=CC(=O)C=CC2=O)cc1 |  | 29.6 µM | 21.3 µM | 23.6 µM | 28.2 µM | 9.82 µM | 36.6 µM | 16.1 µM | 31.6 µM | 3.29 µM |
| [O-][N+]1=NC(c2ccccc2)=C1c1ccccc1 |  | > 50 µM | > 50 µM | > 50 µM | > 50 µM | > 50 µM |  | > 50 µM | > 50 µM | > 50 µM |
| CN(C)S(=O)(=O)n1cnc(CO)c1 | > 100 µM | > 100 µM | > 100 µM | > 100 µM | > 100 µM | > 100 µM | > 100 µM | > 100 µM |  |  |
| O=C(O)CN1CCN(CC(=O)N2CCN(C(=O)OCc3ccccc3)CC2)CCN(CC(=O)O)CCN(CC(=O)N2CCN(C(=O)OCc3ccccc3)CC2)CC1 | > 100 µM | > 100 µM | > 100 µM |  | > 100 µM | > 100 µM | > 100 µM | > 100 µM | > 100 µM | > 100 µM |
| COc1ccc(/C=C2\Sc3nnc(CNc4ccc(Cl)cc4)n3N=C2c2cc(F)c(Cl)cc2Cl)cc1OC | > 100 µM | > 100 µM | > 100 µM | 74.2 µM | 52.3 µM |  | > 100 µM | > 100 µM | > 100 µM | > 100 µM |
| CC1Cc2cc(O)c(O)cc2-c2cc(O)c(O)cc2CC1C (configuration not stated) | 63.7 µM | 14 µM | 86.4 µM | 56.4 µM | 38.4 µM | 20.6 µM | 43.1 µM | 29.3 µM | > 100 µM |  |
| SCc1ccc(CS)s1 | > 100 µM | > 100 µM | > 100 µM |  | > 100 µM |  | > 100 µM | > 100 µM | > 100 µM | > 100 µM |
| N#Cc1c(O)cc(=O)n2c1[nH]c1ccccc12 |  | > 100 µM | > 100 µM | > 100 µM | > 100 µM | > 100 µM | > 100 µM | > 100 µM | > 100 µM | > 100 µM |
| Cc1cnc2c(c1)C(=O)C1=C(OC(C)(C)CC1O)C2=O (configuration not stated) |  | > 100 µM | 34.1 µM | 29.3 µM |  | 27.6 µM | 32.9 µM | 23.4 µM |  | 26.3 µM |
| COC(=O)c1ccccc1/C=C1\Cc2c(C)cc(C)cc2C1=O | > 100 µM | > 100 µM | > 100 µM | > 100 µM |  | > 100 µM | > 100 µM | > 100 µM |  | > 100 µM |
| CCCCCCCCCCCCOc1ccc(/C=C/C2=[N+](CCCl)CCO2)cc1 | > 100 µM | > 100 µM | > 100 µM |  | > 100 µM | > 100 µM | > 100 µM | 37.9 µM | > 100 µM | 28.8 µM |
| NCCSCc1ccccc1Cl | > 100 µM | > 100 µM | 74 µM | > 100 µM | > 100 µM | > 100 µM | 38.7 µM | 82.9 µM | > 100 µM |  |
| CC(C)(C)OC/C=C1\C(=O)O[C@H]2C[C@@H](O[Si](C)(C)C(C)(C)C)C[C@@H]12 | > 100 µM | > 100 µM | > 100 µM | > 100 µM | > 100 µM | > 100 µM | > 100 µM | > 100 µM | > 100 µM |  |
| COc1ccc(N=Nc2c(C)c(C#N)c(=S)n(C3OC(CO)C(O)C(O)C3O)c2C)cc1 (configuration not stated) | 79.8 µM | > 100 µM | > 100 µM | > 100 µM | > 100 µM |  |  | > 100 µM | > 100 µM | > 100 µM |
| O=C1NC(N2CCCCC2)=N/C1=C\c1ccccc1O | > 100 µM | > 100 µM | > 100 µM | > 100 µM | > 100 µM | > 100 µM |  | > 100 µM | > 100 µM | > 100 µM |
| NC(=O)C(=O)C(c1ccccc1)S(=O)(=O)Cc1ccccc1 (configuration not stated) | > 100 µM | > 100 µM | > 100 µM | > 100 µM | > 100 µM |  | > 100 µM | > 100 µM | > 100 µM |  |
| COC(=O)[C@@H](Cc1ccccc1)N1O[C@]12CCCC[C@@H]2NC(=O)OC(C)(C)C (some centres not stated) | 62.4 µM | > 100 µM | 49 µM | 56.1 µM | 52.4 µM | 56 µM | > 100 µM | 57.1 µM | 79 µM |  |

From PubChem BioAssay (NCI)
